Measurements published in patent US10899738B2 (THE REGENTS OF THE UNIVERSITY OF MICHIGAN, priority 2016, dated 2021).
Like-named read-outs stand apart in the source and are kept apart here.

Columns and labels:
menin protein = menin protein (Homo sapiens (Human), UniProt O00255); experiment: biochemical; format: binding; conditions: FP competitive binding; menin protein 4 nM, FAM-MM2 probe 2 nM; read-out: Menin Binding Affinity IC50
Outline: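 Test compounds displaced FAM-MM2 (2 nM) from 4 nM menin after 30 min equilibration at room temperature in PBS buffer containing bovine γ-globulin, 4% DMSO and Triton X-100. Binding was followed by fluorescence polarization. Competition curves were fitted by nonlinear regression to give IC50 and Ki.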

[1] = Cell growth inhibition, CellTiter-Glo Luminescent Cell Viability Assay; format: cell-based
Outline: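 Cells seeded at 2,000/well with serially diluted compound and cultured 4 days at 37 °C, 5% CO2. Viability read by CellTiter-Glo luminescence; IC50 derived from dose-response.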

[2] = MOLM-13, 96 h, read-out: Cell Growth Inhibition IC50 (μM) MOLM13, MOLM13 cells, 4 days, CellTiter-Glo
[3] = MV4-11, 96 h, read-out: Cell Growth Inhibition IC50 (μM) MV4, 11, MV4, 11 cells, 4 days, CellTiter-Glo

Sequence of menin protein (O00255 whole entry): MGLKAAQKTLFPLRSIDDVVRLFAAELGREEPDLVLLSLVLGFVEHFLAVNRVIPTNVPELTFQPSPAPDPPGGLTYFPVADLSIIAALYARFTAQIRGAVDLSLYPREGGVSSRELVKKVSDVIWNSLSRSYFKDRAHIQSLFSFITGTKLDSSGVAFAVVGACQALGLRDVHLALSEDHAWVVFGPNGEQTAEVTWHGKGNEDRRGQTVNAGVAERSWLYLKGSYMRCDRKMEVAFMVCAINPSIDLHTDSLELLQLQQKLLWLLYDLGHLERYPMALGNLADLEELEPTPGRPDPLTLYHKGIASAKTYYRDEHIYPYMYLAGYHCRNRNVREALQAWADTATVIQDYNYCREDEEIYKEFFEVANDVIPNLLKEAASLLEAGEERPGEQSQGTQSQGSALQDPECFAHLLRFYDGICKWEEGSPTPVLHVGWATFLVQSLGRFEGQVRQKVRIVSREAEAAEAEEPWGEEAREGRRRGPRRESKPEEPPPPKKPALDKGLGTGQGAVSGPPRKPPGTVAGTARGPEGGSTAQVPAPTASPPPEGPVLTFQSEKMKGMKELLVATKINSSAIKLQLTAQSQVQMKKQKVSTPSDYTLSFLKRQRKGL

Structure (SMILES)	IC50 (menin protein)	IC50 ([1]; MOLM13 cells, 4 days, CellTiter-Glo, read-out: Cell Growth Inhibition IC50 (μM) MOLM13)	IC50 ([1]; MV4, 11 cells, 4 days, CellTiter-Glo, read-out: Cell Growth Inhibition IC50 (μM) MV4, 11)	IC50 ([1]; MOLM-13, 96 h, MOLM13 cells, 4 days, CellTiter-Glo, read-out: Cell Growth Inhibition IC50 (μM) MOLM13)	IC50 ([1]; MV4-11, 96 h, MV4, 11 cells, 4 days, CellTiter-Glo, read-out: Cell Growth Inhibition IC50 (μM) MV4, 11)	IC50 [1, 2]	IC50 [1, 3]
CCN1Cc2ccccc2C(C2CCCC2)(C2CCN(CC3CN(c4ccc(S(=O)(=O)C5CC5)cc4)C3)C(C)C2)C1 (stereo not drawn) [compound 95, 4-cyclopentyl-4-(1-((1-(4-(cyclopropylsulfonyl)phenyl)azetidin-3-yl)methyl)-2-methylpiperidin-4-yl)-2-ethyl-1,2,3,4-tetrahydroisoquinoline]	24 nM	1.9 µM	1.8 µM	–	–	–	–
CCN1Cc2ccccc2C(C2CCCC2)(C2CCN(CC3CN(c4ccc(C#N)cc4)C3)CC2)C1 (stereo not drawn) [compound 46, 4-(3-((4-(4-cyclopentyl-2-ethyl-1,2,3,4-tetrahydroisoquinolin-4-yl)piperidin-1-yl)methyl)azetidin-1-yl)benzonitrile]	23 nM	–	–	5.1 ± 0.2 µM	0.972 ± 0.558 µM	–	–
COC(=O)N[C@H]1CCC[C@@H]1C(C#N)(c1ccccc1)C1CCN(CC2CN(c3ccc(S(=O)(=O)c4ccccc4)cc3)C2)CC1 (mixture of isomers) [compound 347, methyl (rac-(1S,2R)-2-(cyano(phenyl)(1-((1-(4-(phenylsulfonyl)phenyl)azetidin-3-yl)methyl)piperidin-4-yl)methyl)cyclopentyl) carbamate]	14 nM	–	–	–	–	0.44 µM	0.36 µM
CCN1Cc2ccccc2C(C2CCN(CC3CN(c4ccc(S(=O)(=O)c5ccccc5)cc4)C3)CC2)([C@H]2CCC[C@@H]2NC(=O)NC)C1 (mixture of isomers) [compound 290, rac-1-((1S,2R)-2-(2-ethyl-4-(1-((1-(4-(phenylsulfonyl)phenyl)azetidin-3-yl)methyl)piperidin-4-yl)-1,2,3,4-tetrahydroisoquinolin-4-yl)cyclopentyl)-3-methylurea]	9 nM	–	–	–	–	0.32 µM	0.11 µM
COC(=O)N[C@H]1CCC[C@@H]1C(C#N)(c1ccccc1)C1CCN(CC2CN(c3ccc(S(=O)(=O)C4CC4)cc3)C2)CC1 (mixture of isomers) [compound 319, rac-methyl ((1S,2R)-2-(cyano(1-((1-(4-(cyclopropylsulfonyl)phenyl)azetidin-3-yl)methyl)piperidin-4-yl)(phenyl)methyl)cyclopentyl)carbamate]	31 nM	–	–	–	–	2.77 µM	0.33 µM
CN1Cc2ccccc2C(C2CCCC2)(C2CCN(CCCOc3ccc(C#N)cc3)CC2)C1 (stereo not drawn) [compound 23, 4-(3-(4-(4-cyclopentyl-2-methyl-1,2,3,4-tetrahydroisoquinolin-4-yl)piperidin-1-yl)propoxy)benzonitrile]	54 nM	–	–	–	–	5 µM	1 ± 0.4 µM
CNC(=O)N[C@@H]1CCC[C@H]1C1(C2CCN(CC3CN(c4ccc(S(=O)(=O)c5ccncc5)cc4)C3)CC2)CN(C)Cc2ccccc21 (mixture of isomers) [compound 278, rac-1-methyl-3-((1R,2S)-2-(2-methyl-4-(1-((1-(4-(pyridin-4-ylsulfonyl)phenyl)azetidin-3-yl)methyl)piperidin-4-yl)-1,2,3,4-tetrahydroisoquinolin-4-yl)cyclopentyl)urea]	296 nM	–	–	–	–	2.12 µM	2.27 µM
CCC(=O)O[C@H]1CCC[C@@H]1C(C#N)(c1ccccc1)C1CCN(CC2CN(c3ccc(S(=O)(=O)c4ccncc4)cc3)C2)CC1 (mixture of isomers) [compound 195, rac-(1S,2R)-2-(cyano(phenyl)(1-((1-(4-(pyridin-4-ylsulfonyl)phenyl)azetidin-3-yl)methyl)piperidin-4-yl)methyl)cyclopentyl propionate]	10 nM	–	–	–	–	1.5 µM	0.991 µM
CC(=O)O[C@H]1CCC[C@@H]1C1(C2CCN(CC3CN(c4ccc(S(=O)(=O)c5ccncc5)cc4)C3)CC2)CN(C)Cc2ccccc21 (mixture of isomers) [compound 206, rac-(1S,2R)-2-(2-methyl-4-(1-((1-(4-(pyridin-4-ylsulfonyl)phenyl)azetidin-3-yl)methyl)piperidin-4-yl)-1,2,3,4-tetrahydroisoquinolin-4-yl)cyclopentyl acetate]	3 nM	–	–	–	–	0.411 ± 0.3 µM	0.119 ± 0.048 µM
